Data published in US20050214744A1, “New mutational profiles in hiv-1 reverse transcriptase correlated with phenotypic drug resistance” (priority 2002, published 2005).

Key:
[1] = system: SM26-derived strain K103N, Y181C, L100I, V189V/I, E194G/E; assay: Antiviral activity against strain selected with compound 1 0.200 μM (day 7), acutely infected MT4 cells; assay type: cell-based, HIV-1; conditions: SM26 selected with Compound 1 0.200 μM, breakthrough day 7, additional L100I; for EC50: Human immunodeficiency virus 1, MT4, 168 h, unit inferred, read-out: Median EC50
Protocol: (§1) Determination of the antiviral activity of a compound was done as described in Pauwels R. et al. (J Virol Methods 1988; 20(4):309-21). Various concentrations of the test compounds were brought into each well of a flat-bottom microtiter plate. Subsequently, HIV and MT4 cells were added to a final concentration of 200-250 50% cell culture infectious doses (CCID50)/well and 30,000 cells/well, respectively. After 5 days of incubation (37° C., 5% CO2), the cytopathic effect of the replicating virus was determined by the tetrazolium colorimetric MTT method. The dose protecting 50% of the cells from virus cytopathic effect was defined as the EC50, while the dose achieving 90% protection was defined as the EC90. Reporter gene assay The reporter gene assay used MT4-LTR-EGFP cells. Upon infection by HIV-1, the expression of the viral tat product increases transcription from the HIV-1 LTR promoter, leading to high-level expression of the reporter gene product. The assay procedure was similar to the CPE assay, except for the end reading of the assay, which was performed on day 3 by measuring the relative fluorescence of treated cultures and comparing this with the relative fluorescence of untreated cultures. The EC50 or the EC90 of a compound was defined as the concentration that inhibited the relative fluorescence by 50% or 90% respectively.
(§2) Cells are infected at a high MOI (such as 1-50 CCID50/cell), corresponding to >10^9 viral RNA copies/ml. These experiments have been designed to mimic the quasi-species variability that is observed in HIV infected individuals where 10^9 to 10^10 new viruses are produced daily with a mutation rate of 10^−4 to 10^−5. The infected MT4-LTR-EGFP cells are treated with inhibitors at 40, 200 nM, 1 μM and higher for a maximum of 30 days. The cultures are sub-cultivated and scored on virus-induced fluorescence and cytopathicity every 3-4 days. If full virus breakthrough (100% CPE) is observed the supernatants was collected and stored (new virus strain). If no full CPE was observed the cells were sub-cultivated and further grown in the presence of the same concentration compound till full virus breakthrough, with a maximum of 30 days. From the emerging virus populations a virus stock was grown in the absence of compounds and titrated. The sensitivities of the isolated strains to HIV-1 RT inhibitors were determined and the strains were genotyped.
(§3) In vitro drug selection experiments starting from wild-type HIV-1/LAI under pressure of compound 1 have been performed.

HIV-1/LAI = assay: Antiviral activity against wild-type strain in acutely infected MT4 cells; assay type: cell-based; conditions: for EC50: Human immunodeficiency virus 1, table prints no unit (EC50 in μM), read-out: Median EC50
Protocol: as §1, §2, §3

[2] = system: SM26-derived strain K103N, Y181C, L100I, E194G; assay: Antiviral activity against strain selected with compound 1 1.000 μM (day 11), acutely infected MT4 cells; assay type: cell-based, HIV-1; conditions: SM26 selected with Compound 1 1.000 μM, breakthrough day 11, additional L100I; for EC50: Human immunodeficiency virus 1, MT4, 264 h, unit inferred, read-out: Median EC50
Protocol: as §1, §2, §3

[3] = system: SM26-derived strain K103N, Y181C, L100I, V189I, E194G; assay: Antiviral activity against strain selected with compound 1 1.000 μM (day 13), acutely infected MT4 cells; assay type: cell-based, HIV-1; conditions: SM26 selected with Compound 1 1.000 μM, breakthrough day 13, additional L100I; for EC50: Human immunodeficiency virus 1, MT4, 312 h, unit inferred, read-out: Median EC50
Protocol: as §1, §2, §3

[4] = system: SM26-derived strain K103N, Y181C, L100I, V189V/I, E194G/E, R356R/K; assay: Antiviral activity against strain selected with compound 1 0.200 μM (day 9), acutely infected MT4 cells; assay type: cell-based, HIV-1; conditions: SM26 selected with Compound 1 0.200 μM, breakthrough day 9, additional L100I; for EC50: Human immunodeficiency virus 1, MT4, 216 h, unit inferred, read-out: Median EC50
Protocol: as §1, §2, §3

SM26 (K103N, Y181C) [5] = assay: Antiviral activity against starting strain SM26 in acutely infected MT4 cells; assay type: cell-based, HIV-1; conditions: for EC50: Human immunodeficiency virus 1, no selecting compound, unit inferred, read-out: Median EC50; for FC (fold change in resistance, ratio of EC50 vs wild type): no selecting compound
Protocol: as §1, §2, §3

[6] = system: SM26-derived strain K103N, Y181C, E194E/K; assay: Antiviral activity against strain selected with compound 1 0.040 μM, acutely infected MT4 cells; assay type: cell-based, HIV-1; conditions: SM26 selected with Compound 1 0.040 μM, breakthrough day 7, additional E194E/K; for EC50: Human immunodeficiency virus 1, MT4, 168 h, unit inferred, read-out: Median EC50
Protocol: as §1, §2, §3

SM26 (K103N, Y181C) [7] = assay: In vitro selection of resistant strains at high MOI (virus breakthrough); assay type: cell-based, HIV-1

Row | Compound | EC50 [1] [nM] | FC (fold change in resistance, ratio of EC50 vs wild type) [1] | FC (fold change in resistance, ratio of EC50 vs wild type) (HIV-1/LAI) | EC50 (HIV-1/LAI) [µM] | EC50 [2] [µM] | EC50 [3] [µM] | FC (fold change in resistance, ratio of EC50 vs wild type) [3] | EC50 [4] [nM] | FC (fold change in resistance, ratio of EC50 vs wild type) [4] | EC50 (SM26 (K103N, Y181C) [5]) [nM] | FC (fold change in resistance, ratio of EC50 vs wild type) (SM26 (K103N, Y181C) [5]) | EC50 [6] [nM] | FC (fold change in resistance, ratio of EC50 vs wild type) [6] | FC (fold change in resistance, ratio of EC50 vs wild type) [2] | Days to breakthrough (SM26 (K103N, Y181C) [7]; 0.040 μM, selected E194E/K) | Days to breakthrough (SM26 (K103N, Y181C) [7]; 0.200 μM (first culture), selected L100I, V189V/I, E194G/E) | Days to breakthrough (SM26 (K103N, Y181C) [7]; 0.200 μM (second culture), selected L100I, V189V/I, E194G/E, R356R/K) | Days to breakthrough (SM26 (K103N, Y181C) [7]; 1.000 μM (first culture), selected L100I, E194G) | Days to breakthrough (SM26 (K103N, Y181C) [7]; 1.000 μM (second culture), selected L100I, V189I, E194G)
1 | O=C1Nc2ccc(Cl)cc2[C@@](C#CC2CC2)(C(F)(F)F)O1 [Efavirenz] | 2750 | 2.747 | 1 | 0.001 | 6.73 | 3.6 | 3.595 | 56.5 | 57 | 36.7 | 37 | 32.7 | 33 |  |  |  |  |  | 
2 | Cc1cc(C#N)cc(C)c1Oc1nc(Nc2ccc(C#N)cc2)nc(N)c1Br [Compound 1, Benzonitrile, 4-[[6-amino-5-bromo-2-[(4-cyanophenyl)-amino]-4-pyrimidinyl]oxy]-3,5-dimethyl-] | 149 | 106 | 1 | 0.0014 | 0.668 | 0.261 | 187 | 26.8 | 19 | 5 | 4 | 7.8 | 6 | 477 | day 7 | day 7 | day 9 | day 11 | day 13
3 | Cc1ccnc2c1NC(=O)c1cccnc1N2C1CC1 [Nevirapine] | > 10000 | >131 | 1 | 0.0763 | > 10 | > 10 | >131 | > 10000 | >131 | > 10000 | >131 | > 10000 | >131 | >131 |  |  |  |  | 
